Source: patent US20100227841A1, “Patient populations and treatment methods” (Harbor BioSciencs, Inc., priority 2008, published 2010)

Key:
[1] = tested on: pre-diabetic hyperglycemic patients and patients having type 2 diabetes; test: Glucose clamp (M value) in 28-day clinical trial of oral capsules; assay type: in vivo, human
Procedure: Groups of pre-diabetic hyperglycemic patients and patients having type 2 diabetes were treated for 28 days with the experimental drug 17α-ethynylandrost-5-ene-3β,7β,17β-triol (oral capsules) or with placebo. […] Placebos were obtained with each treatment cohort based on protocol randomization of 2 treated:1 placebo. The pre-diabetic patients were obese (body mass index ≧29 kg/m^2) and glucose intolerant (fasting plasma glucose <126 mg/dL; 2-hr post prandial glucose 140-200 mg/dL after 75 g oral glucose). The diabetic patients were dosed with 10 mg/day for 28 days (n=6; cohort 6). […] Patients with an M value of <5 mg glucose/kg/min (M<5) were considered insulin resistant and patients with an M value of >5 mg glucose/kg/min (M>5) were considered insulin sensitive or essentially normal for whole body glucose metabolism.
The analysis of responders used standard analysis. Due to the cohort sizes and the ongoing basis of this clinical protocol, data for surrogates that corresponded to significance at p≦0.10 (trend) were considered positive evidence of surrogacy of the biomarker for the M<5 insulin resistant condition.

[2] = tested on: Zucker Diabetic Fatty (ZDF) rats; test: Zucker Diabetic Fatty (ZDF) rat study (glucose, clamp, adipose histology, lipid profiles); assay type: in vivo
Procedure: The study was staggered into 6 cohorts conducted on different days. Forty-two male Zucker Diabetic Fatty (ZDF) rats and six Zucker Fatty rats at 7-week of age were obtained from Charles River laboratories (Wilmington, Mass.). The rats were housed individually in polycarbonate cages in a temperature-controlled room on a 12 h: 12 h light: dark cycle with the lights on at 0600 h. Rats were fed ad libitum except during the experiments. After one week of acclimation to environmental conditions, the ZDF rats began daily oral treatment for 32 to 35 days with vehicle (n=18), 100 mg/kg/day 17α-ethynylandrost-5-ene-3β,7β,17β-triol (n=15), or 10 mg/kg/day rosiglitazone (n=9).
Glucose levels were measured using a One-Touch glucometer (Lifescan). Extra serum samples were collected for free fatty acid (FFA), free glycerol, pyruvate, and lactate measurements. Glucose, insulin and pyruvate tolerance tests were performed on 6 hr fasted rats. For GTT, animals were orally gavaged with glucose (1 g/kg), whereas for ITT, 0.35 units/kg insulin (Novolin R, Novo-Nordisk) was injected intraperitoneally. Blood samples were taken at basal and 15, 30, 60, 90 and 120 min after injection. For the pyruvate tolerance test (PTT), 1 g/kg of pyruvate was used.
Dual jugular venous cannulae and one carotid arterial cannula were implanted in rats. The rats were allowed to recover for 4 to 5 days before clamp procedure. The hyperinsulinemic euglycemic clamp experiments began with a priming injection (7.5 μCi/0.2 ml) and constant infusion (0.25 μCi/min) of D-[3-^3H] glucose (Du Pont-NEN, Boston, Mass.). After 60 min of tracer equilibration and basal sampling at t=−10 and 0 min, glucose (50% dextrose, variable infusion; Abbott) and tracer (0.25 μCi/min) plus insulin ([…]) were infused into the jugular vein. Small blood samples were drawn at 10-min intervals and immediately analyzed for glucose to maintain the integrity of the glucose clamp throughout the duration of the experiment. Blood samples were taken at t=−60 (start of experiment), −10, 0 (basal), 110, and 120 (end of experiment) min to determine glucose-specific activity and insulin, and free fatty acid (FFA). To ensure accuracy, basal and terminal sampling was performed twice at 10-min intervals. The achievement of steady-state conditions (100 mg/dl±5 mg/dl) was confirmed at the end of the clamp by measuring blood glucose every 10 min and ensuring that steady state for glucose infusion and plasma glucose levels were maintained for a minimum of 20 min. All blood samples were immediately centrifuged, and plasma was stored at −80° C. for subsequent analysis.
Following a 3-day recovery after clamp, rats were fasted 6 hours and euthanized. Tissues were harvested at basal state or acute insulin-stimulated state (5 U/kg). Insulin levels were analyzed by ELISA assay (Alpco Diagnostics). FFA levels were measured by enzymatic assay (Wako Diagnostics). Glycerol levels were measured using an assay kit from Sigma. Lactate and pyruvate assay kits were obtained from Biovision. TNFα and IL-1βwere measured by ELISA assays (Biosource).
Immunohistochemistry and quantification of crown-like structure (CLS) were done. These studies were conducted using paraffin-embedded adipose (epididymal) tissue sections from the rats incubated with MAC-2 antibody (Abcam) at a 1:100 dilution overnight at 4° C. Subsequently, biotinylated anti-rat secondary antibody (BD Bioscience) was used at 1:100 dilution, followed by 1:500 HRP-Streptavidin (Jackson ImmunoResearch) and development in substrate chromogen. Slides were counterstained with Mayer's and mounted with Vectashield mounting media with DAPI (Vector). Both bright field (MAC-2) and fluorescent photographs (DAPI) were taken of 3 representative fields per slide in a blinded fashion using a fluorescent microscope (10× objective).
Gene expression analyses used total RNA extracted from tissue with Purelink total RNA purification system (Invitrogen) following the manufacturer's protocol.

[3] = ZDF rats, 100 mg/kg/d, throughout the study, one week sufficient
[4] = euglycemic-hyperinsulinemic clamp, triol 100 mg/kg/d, rosiglitazone 10 mg/kg/d (more robust)

## C#C[C@]1(O)CC[C@H]2[C@@H]3[C@@H](O)C=C4C[C@@H](O)CC[C@]4(C)[C@H]3CC[C@@]21C [17α-ethynylandrost-5-ene-3β,7β,17β-triol]
[1]; 28 days, lower degree of response than higher doses
  minimal effective dose: 4 mg/day
[1]; interim analysis, M<5, two patients treated with 20 mg/day
  change in M value: increased
[1]; interim analysis, M<5 patients, 10 mg/day (5 mg twice per day) vs placebo, p=0.0286
  change in M value: significantly increased
[1]; interim analysis, M<5 patients, pooled 10 mg/day or 20 mg/day vs placebo, p=0.0095
  change in M value: significantly increased
[1]; interim analysis, M>5 patients, 10 mg/day, 20 mg/day or pooled vs placebo
  change in M value: no statistically significant difference
[1]; interim analysis, overall protocol, 20 mg/day group, p=0.0823
  change in M value: trends to significance
[1]; interim analysis, overall protocol, 'mg/day group', p=0.0513
  change in M value: trends to significance
[1]; interim analysis, overall protocol, pooled patients, p=0.0278
  change in M value: significantly increased
[1]; one pre-diabetic hyperglycemic patient, 28 days of dosing 4 mg/day
  M value (glucose control): increased
[1]; pre-diabetic hyperglycemic patients having M<5
  effectiveness of treatment by M value subgroup: most effective
[1]; second interim analysis, M<5, 10 mg/day vs placebo, p=0.002
  change in M value: significantly increased
[1]; second interim analysis, M<5, pooled 10 mg/day or 20 mg/day vs placebo, p=0.0007
  change in M value: highly significant positive change
[1]; second interim analysis, M>5 patients, 10 mg/day, 20 mg/day or pooled vs placebo
  change in M value: no statistically significant difference
[1]; second interim analysis, overall protocol, 10 mg/day group, p=0.04
  change in M value: significantly increased
[1]; second interim analysis, overall protocol, 20 mg/day group, p=0.04
  change in M value: significantly increased
[1]; second interim analysis, overall protocol, pooled patients, p=0.0109
  change in M value: significantly increased
[2]; ZDF rats
  intracellular triacylglycerol (TAG) content in livers: marked decrease
[2]; ZDF rats, 100 mg/kg/d
  decrease in serum cholesteryl esters: 59%
  decrease in serum total cholesterol levels: 25%
  gross pathology of the kidneys due to diabetes: greatly ameliorated
  level of free cholesterol in epididymal white adipose tissue (WAT): reduced
  other major lipid classes in WAT: not significantly altered
  reduction of hepatic cholesteryl ester levels: 73%
  reduction of total cholesterol content in the liver: 15%
  serum free cholesterol levels: increase
[2]; ZDF rats, 100 mg/kg/d, one week of treatment
  plasma insulin levels: normalize
[2]; [3]
  fasting glucose levels: completely normalized
  fed glucose levels: completely normalized
[2]; ZDF rats, epididymal adipose tissue sections
  adipose tissue macrophage (ATM) content, Mac-2 staining: marked reduction
[2]; ZDF rats, gene expression
  HMG CoA reductase expression: increased
  low density lipoprotein receptor (LDLR) expression: increased
[2]; ZDF rats, p<0.05
  MCP-1 in adipose tissue: decrease
  TNFα in adipose tissue: decrease
[2]; clamp, triol 100 mg/kg/d, rosiglitazone 10 mg/kg/d
  Basal rates of hepatic glucose production (HGP): equally reduced
[2]; [4]
  glucose infusion rate: increase
  insulin-stimulated glucose disposal: increase
